According to publication PMC11378298 (ACS Chemical Neuroscience, 2024):

Experiments:
GSK-3β [1] = biological target: T1, GSK-3β (Homo sapiens, UniProt P49841); experiment: biochemical
Description: (§1) We selected those kinases with the greatest potential for interaction based on structural homology, as indicated by the ChemPartner panel.
(§2) Figure 7 Kinase selectivity for compound 36. Data are presented as percent of kinases’ activity in the presence of 1 μM of compound 36. Kinases’ panel (CMGC group, human enzymes): CDK1/cyclinB, CDK2/cyclinA, CDK4/cyclinD3, CDK6/cyclinD3, CDK7/cyclinH/MAT1, CDK9/cyclinT1, DYRK1A, DYRK1B, GSK-3α, GSK-3β, JNK2α2, JNK3, MAPK1, MAPK2, SAPK2a(T106M), SAPK2b, SAPK3.
(§3) Selectivity studies were performed at Eurofins in Kinase Enzymatic Radiometric [Km ATP]
(§4) Kinase Profiler Lead Hunter Assay. The percentage of enzymatic activity was measured at the
(§5) concentration of 1 µM of compound 36 in duplicate for 17 selected kinases.
(§6) Table S12. Inhibitory activity of compound 36 against selected kinases.
(§7) *Where n = 2, the value reported here is actually range / √ 2.

HT-22 cells = experiment: Cytotoxicity in HT-22 cells (PrestoBlue); settings: whole range of concentrations 0.1–100 μM
Description: The compounds were tested at 5 concentrations (0.1, 1, 10, 50, and 100 μM).
Mouse Hippocampal Neuronal Cell Line (HT-22) was a generous gift from Dr Bartosz Pomierny of the Department of Biochemical Toxicology, Jagiellonian University Medical College, Krakow, Poland. Cells were cultured in Dulbecco’s modified Eagle’s Medium—high glucose (DMEM, Glutamax Thermo Fisher) supplemented with 10% heat-inactivated fetal bovine serum (Thermo Fisher), 100 IU/mL penicillin (Merck) and 100 μg/mL streptomycin (Merck). Cells were cultured in flasks (area 175 cm^2, Nunc), and incubated at 37 °C, 5% CO2. For the measurement of cell viability and neuroprotective effect against okadaic acid cells were placed in a 96-well culture plate (2 × 10^4 cells per well, Falcon). Before the tests, cells were grown for 24 h in the incubator (37 °C, 5% CO2).
Cell viability was evaluated using the PrestoBlue reagent (ThermoFisher), according to the manufacturer’s procedures.[87] Following 24 h of incubation with the tested molecule, PrestoBlue reagent was added to a microplate well in an amount equal to one-tenth of the remaining medium volume. The resulting mixture was incubated for 15 min at 37 °C, and the fluorescence intensity (EX 530 nm; EM 580 nm) was measured in the plate reader POLARstar Omega, (BMG Labtech).

GSK-3β [2] = biological target: T1, GSK-3β; experiment: Kinetics of GSK-3β inhibition (ADP-Glo, varied ATP); format: biochemical; design: purchased Promega
Source text: Each data point was collected in triplicate.
Kinetics of GSK-3β inhibition by compound 36
diverse ATP concentrations to determine the mechanism of enzyme - inhibitor interaction. The
(1 picture or pasted object on this page, not shown here) […]

CDK6/cyclinD3 = biological target: T2, CDK6/cyclinD3 (Homo sapiens, UniProt Q00534); experiment: Kinase selectivity, radiometric [Km ATP] KinaseProfiler; format: biochemical
T2 construct: purchased Eurofins (KinaseProfiler service)
Description: as §1, §2, §3, §4, §5, §6, §7

CDK9/cyclin T1 = biological target: T3, CDK9/cyclin T1 (Homo sapiens, UniProt P50750); experiment: as above; format: biochemical
T3 construct: purchased Eurofins (KinaseProfiler service)
Description: as §1, §2, §3, §4, §5, §6, §7

SAPK3 = biological target: T4, SAPK3 (Homo sapiens, UniProt P53778); experiment: as above; format: biochemical
T4 construct: purchased Eurofins (KinaseProfiler service)
Description: as §1, §2, §3, §4, §5, §6, §7

JNK2α2 = biological target: T5, JNK2α2 (Homo sapiens, UniProt P45984); experiment: as above; format: biochemical
T5 construct: purchased Eurofins (KinaseProfiler service)
Description: as §1, §2, §3, §4, §5, §6, §7

CDK4/cyclinD3 = biological target: T6, CDK4/cyclinD3 (Homo sapiens, UniProt P11802); experiment: as above; format: biochemical
T6 construct: purchased Eurofins (KinaseProfiler service)
Description: as §1, §2, §3, §4, §5, §6, §7

DYRK1B = biological target: T7, DYRK1B (Homo sapiens, UniProt Q9Y463); experiment: as above; format: biochemical; settings: duplicate
T7 construct: purchased Eurofins (KinaseProfiler service)
Description: as §1, §2, §3, §4, §5, §6, §7

DYRK1A = biological target: T8, DYRK1A (Homo sapiens, UniProt Q13627); experiment: as above; format: biochemical; settings: duplicate
T8 construct: purchased Eurofins (KinaseProfiler service)
Description: as §1, §2, §3, §4, §5, §6, §7

CDK7/cyclinH/MAT1 = biological target: T9, CDK7/cyclinH/MAT1 (Homo sapiens, UniProt P50613); experiment: as above; format: biochemical
T9 construct: purchased Eurofins (KinaseProfiler service)
Description: as §1, §2, §3, §4, §5, §6, §7

JNK3 = biological target: T10, JNK3 (Homo sapiens, UniProt P53779); experiment: as above; format: biochemical
T10 construct: purchased Eurofins (KinaseProfiler service)
Description: as §1, §2, §3, §4, §5, §6, §7

GSK-3α = biological target: T11, GSK-3α (Homo sapiens, UniProt P49840); experiment: as above; format: biochemical; settings: duplicate
T11 construct: purchased Eurofins (KinaseProfiler service)
Description: as §1, §2, §3, §4, §5, §6, §7

SAPK2b = biological target: T12, SAPK2b (Homo sapiens, UniProt Q15759); experiment: as above; format: biochemical
T12 construct: purchased Eurofins (KinaseProfiler service)
Description: as §1, §2, §3, §4, §5, §6, §7

SAPK2a(T106M) = biological target: T13, SAPK2a(T106M) (Homo sapiens, UniProt Q16539, T106M); experiment: as above; format: biochemical
T13 construct: purchased Eurofins (KinaseProfiler service)
Description: as §1, §2, §3, §4, §5, §6, §7

MAPK2 = biological target: T14, MAPK2 (Homo sapiens, UniProt P28482); experiment: as above; format: biochemical
T14 construct: purchased Eurofins (KinaseProfiler service)
Description: as §1, §2, §3, §4, §5, §6, §7

CDK1/cyclinB = biological target: T15, CDK1/cyclinB (Homo sapiens, UniProt P06493); experiment: as above; format: biochemical
T15 construct: purchased Eurofins (KinaseProfiler service)
Description: as §1, §2, §3, §4, §5, §6, §7

MAPK1 = biological target: T16, MAPK1 (Homo sapiens, UniProt P27361); experiment: as above; format: biochemical
T16 construct: purchased Eurofins (KinaseProfiler service)
Description: as §1, §2, §3, §4, §5, §6, §7

CDK2/cyclinA = biological target: T17, CDK2/cyclinA (Homo sapiens, UniProt P24941); experiment: as above; format: biochemical
T17 construct: purchased Eurofins (KinaseProfiler service)
Description: as §1, §2, §3, §4, §5, §6, §7

T1 sequence (P49841 whole entry): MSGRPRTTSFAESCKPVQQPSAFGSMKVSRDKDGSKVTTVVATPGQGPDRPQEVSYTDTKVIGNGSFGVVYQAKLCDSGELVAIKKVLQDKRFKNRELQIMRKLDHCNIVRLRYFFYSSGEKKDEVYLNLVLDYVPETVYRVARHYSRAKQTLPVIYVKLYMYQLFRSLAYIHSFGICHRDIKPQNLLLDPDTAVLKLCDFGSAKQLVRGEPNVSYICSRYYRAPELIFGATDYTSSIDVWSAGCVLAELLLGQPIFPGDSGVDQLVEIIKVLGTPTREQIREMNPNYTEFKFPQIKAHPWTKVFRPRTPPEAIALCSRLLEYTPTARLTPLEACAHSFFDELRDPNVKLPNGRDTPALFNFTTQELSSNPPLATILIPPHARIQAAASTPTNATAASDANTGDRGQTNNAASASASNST
T4 sequence (P53778 whole entry): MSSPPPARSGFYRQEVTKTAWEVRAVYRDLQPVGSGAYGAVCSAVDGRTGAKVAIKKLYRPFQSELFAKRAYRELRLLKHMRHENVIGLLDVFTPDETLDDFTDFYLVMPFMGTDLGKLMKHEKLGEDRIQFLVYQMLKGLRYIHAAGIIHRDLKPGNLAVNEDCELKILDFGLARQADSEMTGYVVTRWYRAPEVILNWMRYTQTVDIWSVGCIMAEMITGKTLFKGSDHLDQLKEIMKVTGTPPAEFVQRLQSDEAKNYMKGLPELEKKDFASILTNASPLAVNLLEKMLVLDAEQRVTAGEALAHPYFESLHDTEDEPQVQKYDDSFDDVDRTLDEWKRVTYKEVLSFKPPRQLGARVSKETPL
T13 sequence (Q16539 whole entry T106M): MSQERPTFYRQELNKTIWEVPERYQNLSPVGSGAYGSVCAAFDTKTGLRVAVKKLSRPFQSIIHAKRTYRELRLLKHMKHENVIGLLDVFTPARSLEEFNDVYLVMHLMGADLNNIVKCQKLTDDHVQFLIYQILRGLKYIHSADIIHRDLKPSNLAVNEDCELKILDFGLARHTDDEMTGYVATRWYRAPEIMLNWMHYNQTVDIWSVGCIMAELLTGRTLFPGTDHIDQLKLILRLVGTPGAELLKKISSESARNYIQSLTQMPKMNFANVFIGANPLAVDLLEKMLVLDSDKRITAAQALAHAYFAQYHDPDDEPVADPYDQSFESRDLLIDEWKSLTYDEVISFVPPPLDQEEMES
T3 sequence (P50750 whole entry): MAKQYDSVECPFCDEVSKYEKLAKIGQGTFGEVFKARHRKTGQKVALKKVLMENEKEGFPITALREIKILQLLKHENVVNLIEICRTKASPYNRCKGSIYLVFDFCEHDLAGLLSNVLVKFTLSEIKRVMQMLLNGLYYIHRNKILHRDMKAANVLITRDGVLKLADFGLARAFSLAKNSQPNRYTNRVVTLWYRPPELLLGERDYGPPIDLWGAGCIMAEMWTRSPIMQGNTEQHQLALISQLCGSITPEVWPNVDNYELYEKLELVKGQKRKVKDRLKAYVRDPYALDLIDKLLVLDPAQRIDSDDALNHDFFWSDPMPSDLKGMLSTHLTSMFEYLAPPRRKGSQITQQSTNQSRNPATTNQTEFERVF
T3 sequence (O60563 whole entry partner): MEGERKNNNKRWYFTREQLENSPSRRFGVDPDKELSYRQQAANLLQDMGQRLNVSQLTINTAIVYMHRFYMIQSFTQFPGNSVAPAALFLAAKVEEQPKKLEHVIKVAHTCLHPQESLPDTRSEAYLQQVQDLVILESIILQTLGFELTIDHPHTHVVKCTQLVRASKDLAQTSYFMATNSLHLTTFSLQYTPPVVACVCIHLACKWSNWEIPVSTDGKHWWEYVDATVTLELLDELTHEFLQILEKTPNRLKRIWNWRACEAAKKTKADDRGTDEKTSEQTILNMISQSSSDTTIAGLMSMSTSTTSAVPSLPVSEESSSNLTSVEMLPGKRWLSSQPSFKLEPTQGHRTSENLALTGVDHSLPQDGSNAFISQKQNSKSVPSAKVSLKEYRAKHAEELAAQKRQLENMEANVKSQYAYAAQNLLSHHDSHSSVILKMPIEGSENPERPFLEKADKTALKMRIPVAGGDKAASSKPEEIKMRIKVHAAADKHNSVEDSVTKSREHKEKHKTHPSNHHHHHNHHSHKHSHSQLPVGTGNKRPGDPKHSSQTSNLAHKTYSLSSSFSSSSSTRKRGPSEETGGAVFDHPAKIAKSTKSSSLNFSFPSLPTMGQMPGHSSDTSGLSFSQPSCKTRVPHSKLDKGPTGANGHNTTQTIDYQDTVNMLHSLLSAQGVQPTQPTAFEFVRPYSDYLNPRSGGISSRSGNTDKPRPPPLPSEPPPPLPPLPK
T5 sequence (P45984 whole entry): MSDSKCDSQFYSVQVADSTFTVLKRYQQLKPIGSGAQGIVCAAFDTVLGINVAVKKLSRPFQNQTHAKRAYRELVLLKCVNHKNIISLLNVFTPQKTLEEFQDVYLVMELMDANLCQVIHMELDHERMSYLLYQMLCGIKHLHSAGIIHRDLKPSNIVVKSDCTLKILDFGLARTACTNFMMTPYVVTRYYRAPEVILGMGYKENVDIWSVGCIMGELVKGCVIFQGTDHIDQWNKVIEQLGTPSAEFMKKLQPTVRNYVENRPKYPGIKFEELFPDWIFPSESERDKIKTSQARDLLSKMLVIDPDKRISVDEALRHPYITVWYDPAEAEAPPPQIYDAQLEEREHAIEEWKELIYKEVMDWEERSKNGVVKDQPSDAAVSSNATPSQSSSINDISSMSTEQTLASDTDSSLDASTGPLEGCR
T6 sequence (P11802 whole entry): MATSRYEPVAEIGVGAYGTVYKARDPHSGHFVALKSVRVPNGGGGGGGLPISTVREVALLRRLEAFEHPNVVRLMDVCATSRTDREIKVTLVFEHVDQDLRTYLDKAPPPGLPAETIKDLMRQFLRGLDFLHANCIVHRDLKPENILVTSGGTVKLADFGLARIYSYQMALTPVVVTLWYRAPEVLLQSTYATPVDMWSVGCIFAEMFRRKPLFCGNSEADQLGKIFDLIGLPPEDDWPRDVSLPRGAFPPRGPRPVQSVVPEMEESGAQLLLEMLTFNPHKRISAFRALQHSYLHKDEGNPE
T6 sequence (P30281 whole entry partner): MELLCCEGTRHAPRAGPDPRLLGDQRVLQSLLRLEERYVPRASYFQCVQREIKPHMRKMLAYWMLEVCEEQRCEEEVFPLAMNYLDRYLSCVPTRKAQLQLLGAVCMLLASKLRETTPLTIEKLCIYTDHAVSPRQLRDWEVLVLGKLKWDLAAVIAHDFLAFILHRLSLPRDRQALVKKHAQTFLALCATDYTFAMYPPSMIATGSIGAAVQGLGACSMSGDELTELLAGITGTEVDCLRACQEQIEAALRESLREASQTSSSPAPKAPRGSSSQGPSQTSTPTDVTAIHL
T9 sequence (P50613 whole entry): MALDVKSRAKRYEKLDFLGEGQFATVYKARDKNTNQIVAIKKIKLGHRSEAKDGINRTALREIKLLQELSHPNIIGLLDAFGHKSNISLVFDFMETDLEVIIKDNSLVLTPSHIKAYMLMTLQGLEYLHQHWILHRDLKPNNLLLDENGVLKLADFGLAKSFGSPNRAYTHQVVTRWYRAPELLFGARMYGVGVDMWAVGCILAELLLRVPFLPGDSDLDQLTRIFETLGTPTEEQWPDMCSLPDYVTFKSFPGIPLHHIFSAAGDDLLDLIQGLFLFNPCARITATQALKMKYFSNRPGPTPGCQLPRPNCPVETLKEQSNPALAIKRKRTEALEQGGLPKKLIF
T9 sequence (P51946 whole entry partner): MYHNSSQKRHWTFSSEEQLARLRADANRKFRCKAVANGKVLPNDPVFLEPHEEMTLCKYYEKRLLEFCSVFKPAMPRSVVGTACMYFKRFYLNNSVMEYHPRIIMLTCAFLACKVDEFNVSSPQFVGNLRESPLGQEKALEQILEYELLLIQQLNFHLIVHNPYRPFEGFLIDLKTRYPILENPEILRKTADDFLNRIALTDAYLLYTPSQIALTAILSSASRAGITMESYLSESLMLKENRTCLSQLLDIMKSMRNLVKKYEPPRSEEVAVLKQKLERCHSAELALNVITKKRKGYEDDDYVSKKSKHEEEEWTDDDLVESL
T9 sequence (P51948 whole entry partner): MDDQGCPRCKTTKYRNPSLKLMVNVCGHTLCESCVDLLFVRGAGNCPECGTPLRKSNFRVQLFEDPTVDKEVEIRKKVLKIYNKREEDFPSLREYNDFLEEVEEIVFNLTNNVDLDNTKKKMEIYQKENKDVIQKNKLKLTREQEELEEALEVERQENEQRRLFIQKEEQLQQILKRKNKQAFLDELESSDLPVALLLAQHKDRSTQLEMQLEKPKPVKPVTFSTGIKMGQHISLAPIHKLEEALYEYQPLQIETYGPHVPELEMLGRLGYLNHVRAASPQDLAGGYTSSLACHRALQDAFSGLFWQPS
T10 sequence (P53779 whole entry): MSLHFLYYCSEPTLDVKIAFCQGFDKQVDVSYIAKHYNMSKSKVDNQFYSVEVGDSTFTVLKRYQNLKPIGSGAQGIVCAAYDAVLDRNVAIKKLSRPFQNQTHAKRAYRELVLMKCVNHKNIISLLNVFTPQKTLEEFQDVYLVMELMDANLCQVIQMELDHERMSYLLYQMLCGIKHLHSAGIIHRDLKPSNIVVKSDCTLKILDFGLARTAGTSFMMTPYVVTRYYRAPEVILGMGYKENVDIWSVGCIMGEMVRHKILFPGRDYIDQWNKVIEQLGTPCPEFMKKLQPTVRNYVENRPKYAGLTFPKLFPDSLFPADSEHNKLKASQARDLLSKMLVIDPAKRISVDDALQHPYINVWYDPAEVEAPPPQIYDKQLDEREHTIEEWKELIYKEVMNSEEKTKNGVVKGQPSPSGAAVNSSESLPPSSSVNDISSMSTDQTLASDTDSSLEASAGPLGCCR

## O=C(Nc1cc(-c2ccc(-c3ncon3)s2)ccn1)C1CC1 [Compound 36, N-(4-(5-(1,2,4-Oxadiazol-3-yl)thiophen-2-yl)pyridin-2-yl)cyclopropanecarboxamide]
GSK-3β [1]; 1 μM, duplicate
  % of enzyme activity at 1μM of 36 ±SD, GSK-3β: 5±1%
GSK-3β [1]; read-out: inhibition of GSK-3β
  inhibition at 1 µM: 92%
HT-22 cells
  cell viability in HT-22 cells: No significant decrease in cell viability
GSK-3β [2]
  Ki: 60.3 nM
GSK-3β [2]; Lineweaver–Burk and Cornish–Bowden plots, varied ATP
  type of inhibition: ATP-competitive
CDK6/cyclinD3
  inhibition at 1 µM: < 50%
CDK6/cyclinD3; duplicate
  % of enzyme activity at 1μM of 36 ±SD, CDK6/cyclinD3: 90±1%
CDK9/cyclin T1
  inhibition at 1 µM: 84%
CDK9/cyclin T1; duplicate
  % of enzyme activity at 1μM of 36 ±SD, CDK9/cyclin T1: 16±2%
SAPK3; 1 μM, duplicate
  % of enzyme activity at 1μM of 36 ±SD, SAPK3: 50±3%
SAPK3; read-out: inhibition of SAPK3
  inhibition at 1 µM: < 50%
JNK2α2
  inhibition at 1 µM: < 50%
JNK2α2; duplicate
  % of enzyme activity at 1μM of 36 ±SD, JNK2α2: 100±7%
CDK4/cyclinD3
  inhibition at 1 µM: < 50%
CDK4/cyclinD3; duplicate
  % of enzyme activity at 1μM of 36 ±SD, CDK4/cyclinD3: 97±9%
DYRK1B
  % of enzyme activity at 1μM of 36 ±SD, DYRK1B: 26±6%
DYRK1A
  % of enzyme activity at 1μM of 36 ±SD, DYRK1A: 11±1%
CDK7/cyclinH/MAT1
  inhibition at 1 µM: < 50%
CDK7/cyclinH/MAT1; duplicate
  % of enzyme activity at 1μM of 36 ±SD, CDK7/cyclinH/ MAT1: 93±7%
JNK3
  inhibition at 1 µM: < 50%
JNK3; duplicate
  % of enzyme activity at 1μM of 36 ±SD, JNK3: 73±6%
GSK-3α
  % of enzyme activity at 1μM of 36 ±SD, GSK-3α: 2±1%
SAPK2b
  inhibition at 1 µM: < 50%
SAPK2b; duplicate
  % of enzyme activity at 1μM of 36 ±SD, SAPK2b: 100±2%
SAPK2a(T106M)
  inhibition at 1 µM: < 50%
SAPK2a(T106M); duplicate
  % of enzyme activity at 1μM of 36 ±SD, SAPK2a(T106M): 95±7%
MAPK2
  inhibition at 1 µM: < 50%
MAPK2; duplicate
  % of enzyme activity at 1μM of 36 ±SD, MAPK2: 98±6%
CDK1/cyclinB
  inhibition at 1 µM: 58%
CDK1/cyclinB; duplicate
  % of enzyme activity at 1μM of 36 ±SD, CDK1/cyclinB: 42±4%
MAPK1
  inhibition at 1 µM: < 50%
MAPK1; duplicate
  % of enzyme activity at 1μM of 36 ±SD, MAPK1: 100±1%
CDK2/cyclinA
  inhibition at 1 µM: 63%
CDK2/cyclinA; duplicate
  % of enzyme activity at 1μM of 36 ±SD, CDK2/cyclinA: 37±1%
